The record followed here is US20020082263A1, “Heterocycle derivatives as PPAR-gamma agonists” (priority 2000, published 2002).

In one test the target is T1, PPAR-gamma (Homo sapiens, UniProt P37231).
T1 construct: host or cells: HepG2 (human hepatoma), transfected
T1 sequence (P37231 1-505): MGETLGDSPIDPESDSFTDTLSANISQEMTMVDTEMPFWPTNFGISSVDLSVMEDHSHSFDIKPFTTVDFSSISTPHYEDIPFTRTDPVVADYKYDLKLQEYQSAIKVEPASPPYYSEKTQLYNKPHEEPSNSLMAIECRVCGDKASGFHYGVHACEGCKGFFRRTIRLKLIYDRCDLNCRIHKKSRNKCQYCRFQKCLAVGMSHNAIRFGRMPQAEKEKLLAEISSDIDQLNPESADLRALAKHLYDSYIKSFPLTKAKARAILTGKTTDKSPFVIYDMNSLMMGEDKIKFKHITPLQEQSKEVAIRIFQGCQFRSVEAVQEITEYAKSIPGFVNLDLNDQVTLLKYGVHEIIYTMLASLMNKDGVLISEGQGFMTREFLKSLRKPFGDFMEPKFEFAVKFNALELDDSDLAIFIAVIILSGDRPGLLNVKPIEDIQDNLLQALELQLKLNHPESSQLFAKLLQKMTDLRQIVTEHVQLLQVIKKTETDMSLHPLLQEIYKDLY
In words: Reporter gene assay in transfected HepG2 cells: transcriptional activation of a PPRE via a PPAR-gamma mediated pathway. As to conditions: transfected human hepatoma (HepG2) cells, 36-48 h exposure, reporter gene activity. Type of test: cell-based. On the procedure: A reporter gene assay utilizing transfected human hepatoma (HepG2) cells is used to screen for compounds that transcriptionally activate a PPRE via a PPAR-gamma mediated pathway. Cells are exposed to experimental compounds dissolved in DMSO for 36-48 h prior to determination of reporter gene activity. 15dPGJ2 (2 μM) is used as positive control and vehicle (DMSO) is used as a negative control.

In test [1] the test system is db/db mice (C578BL/KsJ-db/db Jcl). In words: Effect on serum glucose and serum insulin in db/db mice. The format is in vivo, mouse. The note with it: oral; for Serum Glucose (% reduction) / Serum Insulin (% reduction): blood 1.5 h after last dose vs pretreatment blood, mean ± SEM. On the procedure: Compounds prepared in accordance with Examples 8 and 36 were evaluated for their effect on serum glucose and serum insulin in db/db mice (C578BL/KsJ-db/db Jcl). The compounds were dissolved in a vehicle consisting of 2% Tween80 in distilled water and administered orally. Dosage volume was 10 ml/kg body weight. All aspects of the work including experimentation and disposal of the animals was performed in general accordance with the International Guiding Principles for Biomedical Research Involving Animals (CIOMS Publication No. ISBN 92 90360194, 1985). Glucose-HA Assay kits (Wako, Japan) were used for determination of serum glucose and ELISA Mouse Insulin Assay kits (SPI bio, France) were utilized for determination of insulin. The positive control was troglitazone (Helios Pharmaceutical, Louisville, Ky.).
The animals were divided into twenty groups of four animals each. The animals weighed 52±5 gms at age 8-10 weeks. During the experiment the animals were provided free access to laboratory chow (Fwusow Industry Co., Taiwan) and water
Prior to any treatment a blood sample (pretreatment blood) was taken from each animal. Four groups of animals, the vehicle groups, received only doses of the vehicle. Each of the vehicle groups received of 100, 30, 10 or 1 ml/kg body weight of the vehicle orally. […] The compound of Example 8 was administered orally as a solution (10 ml/kg body weight in tween 80/water) to four groups of animals with each group receiving a different dose of the compound. The dosage rates were […] body weight with only one dosage rate administered to each group. […] The vehicle, positive control and test compound solutions were administered to the groups immediately, 24 hours and 48 hours after drawing the pretreatment blood. Blood was withdrawn (post treatment blood) 1.5 hours after administration of the last dose.
The serum glucose levels of the blood samples was determined enzymatically (Mutaratose-GOD) and the insulin levels by ELISA (mouse insulin assay kit). The mean ±SEM of each group was calculated and the percent inhibition of serum glucose and insulin was obtained by comparison between pretreatment blood and post treatment blood. The percentage of reduction of the serum glucose and insulin levels in the post treatment blood relative to the pretreatment blood was determined and the Unpaired students t test was applied for the comparison between the control and test solution groups and the vehicle group. A significant difference was considered at P<0.05.

Where [2] appears, read: 100 mg/kg body weight, P<0.01, unpaired t test.

The term EC50 denotes the concentration giving half of the maximal effect. A low value points to an effect from little substance.

Bounds are passed on as bounds.

Turning to `COc1cc(CN2CC(CC(=O)NCCO)N(C(=O)NC3CCCCC3)[C@@H](CC(C)C)C2=O)cc(OC)c1` (stereo partly drawn) [Example 43, N-(2-Hydroxyethyl)[1-cyclohexylcarbamoyl-4-(3,5-dimethoxybenzyl)-6-(S)-isobutyl-5-oxo-piperazin-2-yl]-acetamide], the 50% effective concentration (EC50) at PPAR-gamma is above 1000 nM.
With `CNC(=O)CC1CN(Cc2cc(OC)cc(OC)c2)C(=O)[C@H](CC(C)C)N1C(=O)NC1CCCCC1` (stereo partly drawn) [Example 32, N-Methyl[1-cyclohexylcarbamoyl-4-(3,5-dimethoxybenzyl)-6-(S)-isobutyl-5-oxo-piperazin-2-yl]-acetamide], the EC50 on PPAR-gamma amounted to 620 nM.
`CCCC[C@H]1C(=O)N(Cc2cc(OC)cc(OC)c2)CC(CC(=O)NC)N1C(=O)NC1CCCCC1` (stereo partly drawn) [Example 41, N-Methyl[1-cyclohexylcarbamoyl-4-(3,5-dimethoxybenzyl)-6-(S)-butyl-5-oxo-piperazin-2-yl]-acetamide] registered a 50% effective concentration (EC50) on PPAR-gamma of 2350 nM.
Still for that read-out and setting: to `CCNC(=O)CC1CN(Cc2cc(OC)cc(OC)c2)C(=O)[C@H](CC(C)C)N1C(=O)NC1CCCCC1` (stereo partly drawn) [Example 42, N-Ethyl[1-cyclohexylcarbamoyl-4-(3,5-dimethoxybenzyl)-6-(S)-isobutyl-5-oxo-piperazin-2-yl]-acetamide] belongs 250 nM.
Turning to `Cc1c(C)c2c(c(C)c1O)CCC(C)(COc1ccc(CC3SC(=O)NC3=O)cc1)O2` (centres unmarked) [troglitazone, reference compound], the “Serum Glucose (% reduction)” value in test [1] (10 mg/kg at 0, 24 and 48 h) came to 25±2%.
`CCCCNC(=O)CC1CN(Cc2cc(OC)cc(OC)c2)C(=O)[C@H](CC(C)C)N1C(=O)NC1CCCCC1` (stereo partly drawn) [Example 35, N-Butyl[1-cyclohexylcarbamoyl-4-(3 ,5-dimethoxybenzyl)-6-(S)-isobutyl-5-oxo-piperazin-2-yl]-acetamide] showed an EC50 on PPAR-gamma of 120 nM.
For `CCCCNC(=O)C[C@@H]1CN(Cc2cc(OC)cc(OC)c2)C(=O)[C@H](CC(C)C)N1C(=O)NC1CCCCC1` [Example 36, N-Butyl (R)-[1-cyclohexylcarbamoyl-4-(3 5-dimethoxybenzyl)-6-(S)-isobutyl-5-oxo-piperazin-2-yl]-acetamide], the “Serum Glucose (% reduction)” value in test [1] (1 mg/kg at 0, 24 and 48 h) is listed as −1 ± 2%; in test [1] (3 mg/kg at 0, 24 and 48 h) it was 0 ± 2%; in test [1] (10 mg/kg at 0, 24 and 48 h), −4 ± 7%; in test [1] (30 mg/kg at 0, 24 and 48 h) it was 37 ± 8%; in test [1] (100 mg/kg at 0, 24 and 48 h) it was 40 ± 7%. Besides, the “Serum Insulin (% reduction)” value was 8 ± 7% in test [1] (1 mg/kg at 0, 24 and 48 h); −9 ± 2% in test [1] (3 mg/kg at 0, 24 and 48 h); −9 ± 6% in test [1] (10 mg/kg at 0, 24 and 48 h); 1 ± 2% in test [1] (30 mg/kg at 0, 24 and 48 h); 2 ± 4% in test [1] (100 mg/kg at 0, 24 and 48 h). For the same molecule, the “reduction of serum glucose relative to the vehicle treated groups (in words)” value in test [1] (30 mg/kg body weight, P<0.05, unpaired t test) is “significant reduction”; in test [1] (setting [2]) it was “significant reduction”.
Regarding `COc1cc(CN2C[C@@H](CC(=O)NCC3CCCO3)N(C(=O)NC3CCCCC3)[C@@H](CC(C)C)C2=O)cc(OC)c1` (stereo partly drawn) [Example 8, N-Tetrahydrofurfuryl (R)-[1-cyclohexylcarbamoyl-4-(3,5-dimethoxybenzyl)-6-(S)-isobutyl-5-oxo-piperazin-2-yl]-acetamide], the “Serum Glucose (% reduction)” value in test [1] (1 mg/kg at 0, 24 and 48 h) was 9 ± 8%; in test [1] (3 mg/kg at 0, 24 and 48 h) it was −1 ± 3%; in test [1] (10 mg/kg at 0, 24 and 48 h) it was 18 ± 6%; in test [1] (30 mg/kg at 0, 24 and 48 h) it was 14 ± 2%; in test [1] (100 mg/kg at 0, 24 and 48 h), 41 ± 6%. Besides, the “Serum Insulin (% reduction)” value in test [1] (1 mg/kg at 0, 24 and 48 h) is 3 ± 7%; in test [1] (3 mg/kg at 0, 24 and 48 h) it was −7 ± 3%; in test [1] (10 mg/kg at 0, 24 and 48 h), 1 ± 4%; in test [1] (30 mg/kg at 0, 24 and 48 h) it was 5 ± 4%; in test [1] (100 mg/kg at 0, 24 and 48 h), 6 ± 2.5%. Also, in test [1] (setting [2]), the “reduction of serum glucose relative to the vehicle treated groups (in words)” value is “significant reduction”.
